Test results reported in US20250129078A1, “ERBB2 INHIBITORS” (Cogent Biosciences, Inc., priority 2023, published 2025).
Where a name gives a salt, the structure may show the parent alone.

molecular target: EGFR WT (Homo sapiens (Human), UniProt P00533); experiment: ErbB enzyme assay (CisBio HTRF-KinEASE-TK), EGFR WT; assay type: biochemical; settings: ATP at Km (25 μM), 1 h incubation
Description: In vitro enzyme assays based on CisBio HTRF-KinEASE-TK technology were used to determine compound potencies. […]. Compounds were prepared as a three-fold serial dilution in DMSO and added to the assay to give the appropriate final concentration. After a 1 h incubation at ambient temperature, the reaction was quenched by adding 10 μL of 62.5 nM Sa-XL665 and 0.25×TK-Ab-Cryptate in HTRF detection buffer (all from CisBio, part of cat #62TKOPEC). After another 1 h incubation at ambient temperature, the extent of substrate phosphorylation was determined using a PerkinElmer EnVision multimode plate reader via time-resolved fluorescence dual wavelength detection. The percent of control (POC) was calculated using the ratio of emission at […] to the emission at 620 nm. One hundred POC was determined using DMSO only controls (no test compounds present) and zero POC was determined using pre-quenched controls reactions. A 4-parameter logistic equation was fit to the POC values as a function of the test compound concentration and the IC50 value was determined as the point where the curve crossed 50 POC.

EGFR WT, sequence (P00533 25-1210): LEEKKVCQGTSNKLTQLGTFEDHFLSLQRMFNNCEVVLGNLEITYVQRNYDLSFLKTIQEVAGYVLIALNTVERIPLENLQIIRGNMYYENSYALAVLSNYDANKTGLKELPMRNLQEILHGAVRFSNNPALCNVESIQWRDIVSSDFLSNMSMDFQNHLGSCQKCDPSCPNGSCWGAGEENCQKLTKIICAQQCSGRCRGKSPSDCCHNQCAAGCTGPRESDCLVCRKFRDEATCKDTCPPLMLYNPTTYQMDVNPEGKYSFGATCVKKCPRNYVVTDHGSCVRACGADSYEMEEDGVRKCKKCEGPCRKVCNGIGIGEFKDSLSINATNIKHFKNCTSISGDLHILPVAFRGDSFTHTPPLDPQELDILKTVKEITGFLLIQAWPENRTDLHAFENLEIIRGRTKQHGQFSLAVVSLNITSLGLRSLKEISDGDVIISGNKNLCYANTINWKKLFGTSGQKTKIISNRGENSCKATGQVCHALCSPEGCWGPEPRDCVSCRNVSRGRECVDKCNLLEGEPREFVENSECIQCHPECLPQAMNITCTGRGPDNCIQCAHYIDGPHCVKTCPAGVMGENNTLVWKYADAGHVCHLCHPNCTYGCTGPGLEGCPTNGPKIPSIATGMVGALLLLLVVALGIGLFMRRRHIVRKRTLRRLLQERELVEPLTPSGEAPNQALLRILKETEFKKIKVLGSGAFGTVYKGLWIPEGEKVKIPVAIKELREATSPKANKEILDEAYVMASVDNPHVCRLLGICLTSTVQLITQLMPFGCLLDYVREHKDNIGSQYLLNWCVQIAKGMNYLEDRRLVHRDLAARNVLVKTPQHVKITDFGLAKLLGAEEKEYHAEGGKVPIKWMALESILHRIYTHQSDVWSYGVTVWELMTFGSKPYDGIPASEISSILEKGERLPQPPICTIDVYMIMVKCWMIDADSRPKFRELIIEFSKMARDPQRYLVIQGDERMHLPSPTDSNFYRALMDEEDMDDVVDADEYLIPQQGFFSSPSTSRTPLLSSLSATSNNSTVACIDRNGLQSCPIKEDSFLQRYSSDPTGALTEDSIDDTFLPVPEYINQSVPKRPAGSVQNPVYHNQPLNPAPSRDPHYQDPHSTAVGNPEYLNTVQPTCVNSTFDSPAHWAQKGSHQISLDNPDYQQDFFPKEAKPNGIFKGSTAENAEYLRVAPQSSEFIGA

Row | IC50 [nM] | SMILES
1 | 100 to 500 | C=CC(=O)N1CCN(c2ccc3ncnc(Nc4cc(C)c(Oc5cc(F)c6c(c5)ncn6C)cc4OC)c3n2)C[C@H]1C [Compound 310, (R)-1-(4-(4-((4-((7-fluoro-1-methyl-1H-benzo[d]imidazol-5-yl)oxy)-2-methoxy-5-methylphenyl)amino)pyrido[3,2-d]pyrimidin-6-yl)-2-methylpiperazin-1-yl)prop-2-en-1-one]
2 | ≥ 1000 | C=C(F)C(=O)N1C2C=C(c3ccc4ncnc(Nc5ccc(Oc6ccc7c(c6)nnn7C)c(C)c5)c4n3)CC1COC2 (stereo not drawn) [Compound 410, 2-fluoro-1-(7-(4-((3-methyl-4-((1-methyl-1H-benzo[d][1,2,3]triazol-5-yl)oxy)phenyl)amino)pyrido[3,2-d]pyrimidin-6-yl)-3-oxa-9-azabicyclo[3.3.1]non-6-en-9-yl)prop-2-en-1-one trifluoroacetate]
3 | 100 to 500 | C=CC(=O)N1CCN(c2ncc3ncnc(Nc4ccc(Oc5cc6nnn(C)c6cc5C)c(C)c4)c3n2)CC1 [Compound 136, 1-(4-(8-((4-((1,6-dimethyl-1H-benzo[d][1,2,3]triazol-5-y1)oxy)-3-methylphenyl)amino)pyrimido[5,4-d]pyrimidin-2-yl)piperazin-1-yl)prop-2-en-1-one]
4 | 100 to 500 | C=CC(=O)N[C@H]1CCN(c2ccc3ncnc(Nc4ccc(Oc5ccc6c(c5)nnn6C)c(C)c4F)c3n2)CC1(C)C [Compound 343, (S)-N-(1-(4-((2-fluoro-3-methyl-4-((1-methyl-1H-benzo[d][1,2,3]triazol-5-yl)oxy)phenyl)amino)pyrido[3,2-d]pyrimidin-6-yl)-3,3-dimethylpiperidin-4-yl)acrylamide]
5 | ≥ 1000 | C=C(F)C(=O)N1C2C=C(c3ccc4ncnc(Nc5ccc(Oc6ccc7c(c6)nnn7C)c(C)c5)c4n3)CC1CC2 (stereo not drawn) [Compound 411, 2-fluoro-1-(3-(4-((3-methyl-4-((1-methyl-1H-benzo[d][1,2,3]triazol-5-yl)oxy)phenyl)amino)pyrido[3,2-d]pyrimidin-6-yl)-8-azabicyclo[3.2.1]oct-2-en-8-yl)prop-2-en-1-one trifluoroacetate]
6 | ≥ 1000 | C=CC(=O)N1C2C=C(c3ccc4ncnc(Nc5cc(C)c(Oc6ccc7c(c6)nnn7C)cc5OC)c4n3)CC1CCC2 (stereo not drawn) [Compound 413, 1-(3-(4-((2-methoxy-5-methyl-4-((1-methyl-1H-benzo[d][1,2,3]triazol-5-yl)oxy)phenyl)amino)pyrido[3,2-d]pyrimidin-6-yl)-9-azabicyclo[3.3.1]non-2-en-9-yl)prop-2-en-1-one trifluoroacetate]
7 | 50 to 100 | C=CC(=O)N1CCN(c2ccc3ncnc(Nc4ccc(Oc5cc6ncnn6cn5)c(C)c4)c3n2)C[C@H]1C [Compound 329, (R)-1-(4-(4-((4-([1,2,4]triazolo[1,5-c]pyrimidin-7-yloxy)-3-methylphenyl)amino)pyrido[3,2-d]pyrimidin-6-yl)-2-methylpiperazin-1-yl)prop-2-en-1-one]
8 | 100 to 500 | C=CC(=O)N[C@H]1[C@@H]2C[C@H]1CN(c1ncc3ncnc(Nc4ccc(Oc5ccc6c(c5)nnn6C)c(C)c4)c3n1)C2 [Compound 207, N-((1R,5S,6r)-3-(8-((3-methyl-4-((1-methyl-1H-benzo[d][1,2,3]triazol-5-yl)oxy)phenyl)amino)pyrimido[5,4-d]pyrimidin-2-yl)-3-azabicyclo[3.1.1]heptan-6-yl)acrylamide]
9 | 50 to 100 | C=CC(=O)N1CCN(c2ccc3ncnc(Nc4cc(C)c(Oc5ccn6ncnc6c5)cc4OC)c3n2)CC1 [Compound 371, 1-(4-(4-((4-([1,2,4]triazolo[1,5-a]pyridin-7-yloxy)-2-methoxy-5-methylphenyl)amino)pyrido[3,2-d]pyrimidin-6-yl)piperazin-1-yl)prop-2-en-1-one]
10 | ≥ 1000 | C=C(F)C(=O)N1CCN(c2ncc3ncnc(Nc4ccc(Oc5ccc6c(c5)nnn6C)c(C)c4)c3n2)C[C@@H]1CF (single isomer, unassigned) [Compound 218]
11 | < 50 | C=CC(=O)N1CC(Oc2ncc3ncnc(Nc4ccc(Oc5cc(F)c6c(c5)ncn6C)c(C)c4)c3n2)C1 [Compound 388, 1-(3-((8-((4-((7-fluoro-1-methyl-1H-benzo[d]imidazol-5-yl)oxy)-3-methylphenyl)amino)pyrimido[5,4-d]pyrimidin-2-yl)oxy)azetidin-1-yl)prop-2-en-1-one]
12 | 500 to 1000 | C=CC(=O)N[C@@H]1CCN(c2ccc3ncnc(Nc4ccc(Oc5ccc6c(c5)nnn6C)c(C)c4F)c3n2)C[C@@H]1F [Compound 279, N-((3S,4R)-3-fluoro-1-(4-((2-fluoro-3-methyl-4-((1-methyl-1H-benzo[d][1,2,3]triazol-5-yl)oxy)phenyl)amino)pyrido[3,2-d]pyrimidin-6-yl)piperidin-4-yl)acrylamide]

The next lines start with the compound.

Row | SMILES | IC50 [nM]
13 | C=C(COC)C(=O)N1CCN(c2ncc3ncnc(Nc4ccc(Oc5ccc6c(c5)nnn6C)c(C)c4)c3n2)CC1 [Compound 54, 2-(methoxymethyl)-1-(4-(8-((3-methyl-4-((1-methyl-1H-benzo[d][1,2,3]triazol-5-yl)oxy)phenyl)amino)pyrimido [5,4-d]pyrimidin-2-yl)piperazin-1-yl) prop-2-en-1-one] | ≥ 1000
14 | C=C(F)C(=O)N1CC2CCC1CN2c1ncc2ncnc(Nc3ccc(Oc4ccc5c(c4)nnn5C)c(C)c3)c2n1 (stereo not drawn) [Compound 50, 2-fluoro-1-(5-(8-((3-methyl-4-((1-methyl-1H-benzo[d][1,2,3]triazol-5-yl)oxy)phenyl)amino)pyrimido[5,4-d]pyrimidin-2-yl)-2,5-diazabicyclo[2.2.2]octan-2-yl)prop-2-en-1-one] | ≥ 1000
15 | C=CC(=O)N1CC2CCC(C1)N2c1ccc2ncnc(Nc3ccc(Oc4ccc5c(c4)nnn5C)c(C)c3)c2n1 [Compound 71, 1-(8-(4-((3-methyl-4-((1-methyl-1H-benzo[d][1,2,3]triazol-5-yl)oxy)phenyl)amino)pyrido[3,2-d]pyrimidin-6-yl)-3,8-diazabicyclo[3.2.1]octan-3-yl)prop-2-en-1-one] | < 50
16 | C=C(F)C(=O)N1C2CCC1CN(c1ccc3ncnc(Nc4ccc(Oc5ccc6c(c5)nnn6C)c(C)c4)c3n1)C2 [Compound 87, 2-fluoro-1-(3-(4-((3-methyl-4-((1-methyl-1H-benzo[d][1,2,3]triazol-5-yl)oxy)phenyl)amino)pyrido[3,2-d]pyrimidin-6-yl)-3,8-diazabicyclo[3.2.1]octan-8-yl)prop-2-en-1-one] | 500 to 1000
17 | C=CC(=O)N1CCN(c2ncc3ncnc(Nc4ccc(Oc5ccc6c(c5)nnn6C)c(C)c4F)c3n2)CC1 [Compound 7, 1-(4-(8-((2-fluoro-3-methyl-4-((1-methyl-1H-benzo[d][1,2,3]triazol-5-yl)oxy)phenyl)amino)pyrimido [5,4-d]pyrimidin-2-y1)piperazin-1-yl)prop-2-en-1-one] | < 50
18 | C=CC(=O)N1CCC2(CC1)CN(c1ncc3ncnc(Nc4ccc(Oc5ccc6c(c5)nnn6C)c(C)c4)c3n1)C2 [Compound 14, 1-(2-(8-((3-methyl-4-((1-methyl-1H-benzo[d][1,2,3]triazol-5-yl)oxy)phenyl)amino)pyrimido[5,4-d]pyrimidin-2-y1)-2,7-diazaspiro[3.5]nonan-7-yl)prop-2-en-1-one] | ≥ 1000
19 | C=CC(=O)N1CC(N(C)c2ncc3ncnc(Nc4ccc(Oc5ccc6c(c5)nnn6C)c(C)c4F)c3n2)C1 [Compound 69, 1-(3-((8-((2-fluoro-3-methyl-4-((1-methyl-1H-benzo[d][1,2,3]triazol-5-yl)oxy)phenyl)amino)pyrimido[5,4-d]pyrimidin-2-yl)(methyl)amino)azetidin-1-yl)prop-2-en-1-one] | < 50
20 | C=CC(=O)N1CCN(c2ccc3ncnc(Nc4ccc(Oc5cc(F)c6c(c5)nnn6C)c(C)c4)c3n2)CC1 [Compound 97, 1-(4-(4-((4-((7-fluoro-1-methyl-1H-benzo[d][1,2,3]triazol-5-yl)oxy)-3-methylphenyl)amino)pyrido[3,2-d]pyrimidin-6-yl)piperazin-1-yl)prop-2-en-1-one] | < 50
21 | C=CC(=O)N1CCN(c2ncc3ncnc(Nc4ccc(Oc5ccc6c(c5)nnn6C)cc4Cl)c3n2)CC1 [Compound 29, 1-(4-(8-((2-chloro-4-((1-methyl-1H-benzo[d][1,2,3]triazol-5-yl)oxy)phenyl)amino)pyrimido[5,4-d]pyrimidin-2-yl)piperazin-1-yl)prop-2-en-1-one] | ≥ 1000
22 | C=CC(=O)N1CC[C@@H](N(C)c2ncc3ncnc(Nc4ccc(Oc5ccc6c(c5)nnn6C)c(C)c4)c3n2)C1 [Compound 128, (R)-1-(3-(methyl(8-((3-methyl-4-((1-methyl-1H-benzo[d][1,2,3]triazol-5-yl)oxy)phenyl)amino)pyrimido[5,4-d]pyrimidin-2-yl)amino)pyrrolidin-1-yl)prop-2-en-1-one] | 100 to 500
23 | C=CC(=O)N1CCN(c2ncc3ncnc(Nc4ccc(Oc5ccc6c(c5)ncn6C(F)F)c(C)c4)c3n2)CC1 [Compound 30, 1-(4-(8-((4-((1-(difluoromethyl)-1H-benzo[d]imidazol-5-yl)oxy)-3-methylphenyl)amino)pyrimido[5,4-d]pyrimidin-2-y1)piperazin-1-yl)prop-2-en-1-one] | 50 to 100
24 | C=CC(=O)N1CC2(C1)CN(c1ncc3ncnc(Nc4ccc(Oc5ccc6c(c5)nnn6C)c(C)c4F)c3n1)C2 [Compound 23, 1-(6-(8-((2-fluoro-3-methyl-4-((1-methyl-1H-benzo[d][1,2,3]triazol-5-yl)oxy)phenyl)amino)pyrimido [5,4-d]pyrimidin-2-yl)-2,6-diazaspiro[3.3]heptan-2-yl)prop-2-en-1-one] | ≥ 1000
